Laboratory results as given in the OligoGym collection.
Oligonucleotides are written 5' to 3', each unit as a sugar letter and its base; * is a phosphorothioate linkage, no mark a phosphodiester; rarer units and linkages stand in square brackets, end groups in braces. Plain capitals give the bases only. Oligonucleotides are given in HELM: sugar(base)linkage, 5' to 3'; d 2'-deoxyribose, r ribose, m 2'-O-methylribose, p phosphate. ss, as = sense and antisense strand; d = 2'-deoxy (DNA); r = 2'-OH (RNA)

target: MRFAP1; assay: reporter assay of Huesken 2005; conditions: siRNA
Note: test concentration or dose not given here.

Substance	normalised inhibition (eCFP-eYFP dual reporter)
sense rArArArArUrArArCrUrUrUrGrArUrUrUrGrGrAdTdT / antisense rUrCrCrArArArUrCrArArArGrUrUrArUrUrUrUdCdC	69.9%
sense rArArArArUrCrUrUrArCrArUrGrUrUrArArUrAdTdT / antisense rUrArUrUrArArCrArUrGrUrArArGrArUrUrUrUdGdT	76.5%
sense rArArArCrUrUrCrArArGrGrArArGrArGrGrCrGdTdT / antisense rCrGrCrCrUrCrUrUrCrCrUrUrGrArArGrUrUrUdTdG	66.3%
sense rArArArGrCrArGrCrGrGrArGrArUrGrCrGrGrCdTdT / antisense rGrCrCrGrCrArUrCrUrCrCrGrCrUrGrCrUrUrUdGdC	35.6%

target: TMEM63B; assay: reporter assay of Huesken 2005; conditions: siRNA

Substance	normalised inhibition (eCFP-eYFP dual reporter)
RNA1{r(U)p.r(C)p.r(C)p.r(U)p.r(G)p.r(G)p.r(G)p.r(A)p.r(G)p.r(C)p.r(U)p.r(C)p.r(A)p.r(G)p.r(G)p.r(G)p.r(G)p.r(A)p.r(U)p.d(T)p.d(T)}|RNA2{r(A)p.r(U)p.r(C)p.r(C)p.r(C)p.r(C)p.r(U)p.r(G)p.r(A)p.r(G)p.r(C)p.r(U)p.r(C)p.r(C)p.r(C)p.r(A)p.r(G)p.r(G)p.r(A)p.d(G)p.d(C)}$$$RNA1{StrandType:ss}|RNA2{StrandType:as}$	52%
RNA1{r(U)p.r(C)p.r(G)p.r(C)p.r(C)p.r(U)p.r(A)p.r(A)p.r(U)p.r(G)p.r(U)p.r(U)p.r(C)p.r(C)p.r(U)p.r(C)p.r(G)p.r(A)p.r(U)p.d(T)p.d(T)}|RNA2{r(A)p.r(U)p.r(C)p.r(G)p.r(A)p.r(G)p.r(G)p.r(A)p.r(A)p.r(C)p.r(A)p.r(U)p.r(U)p.r(A)p.r(G)p.r(G)p.r(C)p.r(G)p.r(A)p.d(G)p.d(C)}$$$RNA1{StrandType:ss}|RNA2{StrandType:as}$	77.9%
RNA1{r(U)p.r(C)p.r(G)p.r(U)p.r(C)p.r(C)p.r(U)p.r(C)p.r(U)p.r(U)p.r(C)p.r(A)p.r(U)p.r(C)p.r(C)p.r(U)p.r(C)p.r(C)p.r(U)p.d(T)p.d(T)}|RNA2{r(A)p.r(G)p.r(G)p.r(A)p.r(G)p.r(G)p.r(A)p.r(U)p.r(G)p.r(A)p.r(A)p.r(G)p.r(A)p.r(G)p.r(G)p.r(A)p.r(C)p.r(G)p.r(A)p.d(C)p.d(A)}$$$RNA1{StrandType:ss}|RNA2{StrandType:as}$	55.8%
RNA1{r(U)p.r(C)p.r(U)p.r(G)p.r(G)p.r(G)p.r(G)p.r(A)p.r(G)p.r(A)p.r(A)p.r(C)p.r(A)p.r(G)p.r(G)p.r(A)p.r(C)p.r(A)p.r(A)p.d(T)p.d(T)}|RNA2{r(U)p.r(U)p.r(G)p.r(U)p.r(C)p.r(C)p.r(U)p.r(G)p.r(U)p.r(U)p.r(C)p.r(U)p.r(C)p.r(C)p.r(C)p.r(C)p.r(A)p.r(G)p.r(A)p.d(G)p.d(C)}$$$RNA1{StrandType:ss}|RNA2{StrandType:as}$	68%
RNA1{r(U)p.r(C)p.r(U)p.r(G)p.r(U)p.r(C)p.r(U)p.r(C)p.r(U)p.r(G)p.r(C)p.r(C)p.r(A)p.r(C)p.r(G)p.r(U)p.r(C)p.r(U)p.r(G)p.d(T)p.d(T)}|RNA2{r(C)p.r(A)p.r(G)p.r(A)p.r(C)p.r(G)p.r(U)p.r(G)p.r(G)p.r(C)p.r(A)p.r(G)p.r(A)p.r(G)p.r(A)p.r(C)p.r(A)p.r(G)p.r(A)p.d(T)p.d(G)}$$$RNA1{StrandType:ss}|RNA2{StrandType:as}$	68.3%
RNA1{r(U)p.r(C)p.r(U)p.r(U)p.r(C)p.r(A)p.r(U)p.r(C)p.r(C)p.r(U)p.r(C)p.r(C)p.r(U)p.r(C)p.r(U)p.r(U)p.r(C)p.r(U)p.r(U)p.d(T)p.d(T)}|RNA2{r(A)p.r(A)p.r(G)p.r(A)p.r(A)p.r(G)p.r(A)p.r(G)p.r(G)p.r(A)p.r(G)p.r(G)p.r(A)p.r(U)p.r(G)p.r(A)p.r(A)p.r(G)p.r(A)p.d(G)p.d(G)}$$$RNA1{StrandType:ss}|RNA2{StrandType:as}$	58.4%
RNA1{r(U)p.r(G)p.r(A)p.r(A)p.r(U)p.r(G)p.r(A)p.r(G)p.r(A)p.r(A)p.r(G)p.r(C)p.r(C)p.r(U)p.r(C)p.r(U)p.r(U)p.r(G)p.r(G)p.d(T)p.d(T)}|RNA2{r(C)p.r(C)p.r(A)p.r(A)p.r(G)p.r(A)p.r(G)p.r(G)p.r(C)p.r(U)p.r(U)p.r(C)p.r(U)p.r(C)p.r(A)p.r(U)p.r(U)p.r(C)p.r(A)p.d(C)p.d(C)}$$$RNA1{StrandType:ss}|RNA2{StrandType:as}$	39.5%
RNA1{r(U)p.r(G)p.r(A)p.r(C)p.r(C)p.r(A)p.r(A)p.r(A)p.r(G)p.r(G)p.r(G)p.r(A)p.r(C)p.r(A)p.r(A)p.r(U)p.r(G)p.r(G)p.r(U)p.d(T)p.d(T)}|RNA2{r(A)p.r(C)p.r(C)p.r(A)p.r(U)p.r(U)p.r(G)p.r(U)p.r(C)p.r(C)p.r(C)p.r(U)p.r(U)p.r(U)p.r(G)p.r(G)p.r(U)p.r(C)p.r(A)p.d(A)p.d(A)}$$$RNA1{StrandType:ss}|RNA2{StrandType:as}$	70.9%
RNA1{r(U)p.r(G)p.r(C)p.r(A)p.r(C)p.r(A)p.r(A)p.r(G)p.r(U)p.r(G)p.r(C)p.r(U)p.r(A)p.r(C)p.r(A)p.r(C)p.r(U)p.r(U)p.r(U)p.d(T)p.d(T)}|RNA2{r(A)p.r(A)p.r(A)p.r(G)p.r(U)p.r(G)p.r(U)p.r(A)p.r(G)p.r(C)p.r(A)p.r(C)p.r(U)p.r(U)p.r(G)p.r(U)p.r(G)p.r(C)p.r(A)p.d(T)p.d(G)}$$$RNA1{StrandType:ss}|RNA2{StrandType:as}$	99.1%
RNA1{r(U)p.r(G)p.r(C)p.r(A)p.r(G)p.r(C)p.r(G)p.r(A)p.r(G)p.r(U)p.r(C)p.r(C)p.r(C)p.r(U)p.r(G)p.r(C)p.r(A)p.r(C)p.r(A)p.d(T)p.d(T)}|RNA2{r(U)p.r(G)p.r(U)p.r(G)p.r(C)p.r(A)p.r(G)p.r(G)p.r(G)p.r(A)p.r(C)p.r(U)p.r(C)p.r(G)p.r(C)p.r(U)p.r(G)p.r(C)p.r(A)p.d(G)p.d(G)}$$$RNA1{StrandType:ss}|RNA2{StrandType:as}$	25.9%
RNA1{r(U)p.r(G)p.r(C)p.r(C)p.r(A)p.r(C)p.r(C)p.r(C)p.r(G)p.r(A)p.r(C)p.r(G)p.r(C)p.r(C)p.r(C)p.r(U)p.r(C)p.r(A)p.r(C)p.d(T)p.d(T)}|RNA2{r(G)p.r(U)p.r(G)p.r(A)p.r(G)p.r(G)p.r(G)p.r(C)p.r(G)p.r(U)p.r(C)p.r(G)p.r(G)p.r(G)p.r(U)p.r(G)p.r(G)p.r(C)p.r(A)p.d(T)p.d(C)}$$$RNA1{StrandType:ss}|RNA2{StrandType:as}$	12.7%
RNA1{r(U)p.r(G)p.r(C)p.r(C)p.r(G)p.r(U)p.r(G)p.r(G)p.r(G)p.r(G)p.r(A)p.r(G)p.r(C)p.r(C)p.r(A)p.r(C)p.r(G)p.r(C)p.r(C)p.d(T)p.d(T)}|RNA2{r(G)p.r(G)p.r(C)p.r(G)p.r(U)p.r(G)p.r(G)p.r(C)p.r(U)p.r(C)p.r(C)p.r(C)p.r(C)p.r(A)p.r(C)p.r(G)p.r(G)p.r(C)p.r(A)p.d(G)p.d(G)}$$$RNA1{StrandType:ss}|RNA2{StrandType:as}$	62.7%
RNA1{r(U)p.r(G)p.r(C)p.r(U)p.r(G)p.r(C)p.r(C)p.r(U)p.r(G)p.r(U)p.r(C)p.r(A)p.r(A)p.r(C)p.r(U)p.r(U)p.r(C)p.r(U)p.r(C)p.d(T)p.d(T)}|RNA2{r(G)p.r(A)p.r(G)p.r(A)p.r(A)p.r(G)p.r(U)p.r(U)p.r(G)p.r(A)p.r(C)p.r(A)p.r(G)p.r(G)p.r(C)p.r(A)p.r(G)p.r(C)p.r(A)p.d(C)p.d(G)}$$$RNA1{StrandType:ss}|RNA2{StrandType:as}$	60.5%
RNA1{r(U)p.r(G)p.r(G)p.r(G)p.r(A)p.r(G)p.r(A)p.r(A)p.r(C)p.r(C)p.r(A)p.r(C)p.r(C)p.r(A)p.r(U)p.r(U)p.r(G)p.r(C)p.r(C)p.d(T)p.d(T)}|RNA2{r(G)p.r(G)p.r(C)p.r(A)p.r(A)p.r(U)p.r(G)p.r(G)p.r(U)p.r(G)p.r(G)p.r(U)p.r(U)p.r(C)p.r(U)p.r(C)p.r(C)p.r(C)p.r(A)p.d(A)p.d(A)}$$$RNA1{StrandType:ss}|RNA2{StrandType:as}$	43.8%
RNA1{r(U)p.r(G)p.r(G)p.r(U)p.r(G)p.r(C)p.r(U)p.r(U)p.r(C)p.r(U)p.r(C)p.r(G)p.r(G)p.r(C)p.r(C)p.r(C)p.r(U)p.r(C)p.r(C)p.d(T)p.d(T)}|RNA2{r(G)p.r(G)p.r(A)p.r(G)p.r(G)p.r(G)p.r(C)p.r(C)p.r(G)p.r(A)p.r(G)p.r(A)p.r(A)p.r(G)p.r(C)p.r(A)p.r(C)p.r(C)p.r(A)p.d(C)p.d(A)}$$$RNA1{StrandType:ss}|RNA2{StrandType:as}$	65.1%
RNA1{r(U)p.r(G)p.r(U)p.r(G)p.r(U)p.r(A)p.r(A)p.r(A)p.r(U)p.r(G)p.r(C)p.r(C)p.r(A)p.r(G)p.r(G)p.r(G)p.r(C)p.r(U)p.r(G)p.d(T)p.d(T)}|RNA2{r(C)p.r(A)p.r(G)p.r(C)p.r(C)p.r(C)p.r(U)p.r(G)p.r(G)p.r(C)p.r(A)p.r(U)p.r(U)p.r(U)p.r(A)p.r(C)p.r(A)p.r(C)p.r(A)p.d(C)p.d(G)}$$$RNA1{StrandType:ss}|RNA2{StrandType:as}$	66.8%
RNA1{r(U)p.r(U)p.r(A)p.r(U)p.r(C)p.r(G)p.r(G)p.r(C)p.r(A)p.r(A)p.r(C)p.r(G)p.r(C)p.r(C)p.r(A)p.r(U)p.r(G)p.r(G)p.r(A)p.d(T)p.d(T)}|RNA2{r(U)p.r(C)p.r(C)p.r(A)p.r(U)p.r(G)p.r(G)p.r(C)p.r(G)p.r(U)p.r(U)p.r(G)p.r(C)p.r(C)p.r(G)p.r(A)p.r(U)p.r(A)p.r(A)p.d(A)p.d(G)}$$$RNA1{StrandType:ss}|RNA2{StrandType:as}$	62.7%
RNA1{r(U)p.r(U)p.r(G)p.r(C)p.r(U)p.r(G)p.r(A)p.r(U)p.r(G)p.r(C)p.r(C)p.r(A)p.r(C)p.r(C)p.r(C)p.r(G)p.r(A)p.r(C)p.r(G)p.d(T)p.d(T)}|RNA2{r(C)p.r(G)p.r(U)p.r(C)p.r(G)p.r(G)p.r(G)p.r(U)p.r(G)p.r(G)p.r(C)p.r(A)p.r(U)p.r(C)p.r(A)p.r(G)p.r(C)p.r(A)p.r(A)p.d(C)p.d(T)}$$$RNA1{StrandType:ss}|RNA2{StrandType:as}$	39.7%
RNA1{r(U)p.r(U)p.r(U)p.r(A)p.r(U)p.r(C)p.r(G)p.r(G)p.r(C)p.r(A)p.r(A)p.r(C)p.r(G)p.r(C)p.r(C)p.r(A)p.r(U)p.r(G)p.r(G)p.d(T)p.d(T)}|RNA2{r(C)p.r(C)p.r(A)p.r(U)p.r(G)p.r(G)p.r(C)p.r(G)p.r(U)p.r(U)p.r(G)p.r(C)p.r(C)p.r(G)p.r(A)p.r(U)p.r(A)p.r(A)p.r(A)p.d(G)p.d(G)}$$$RNA1{StrandType:ss}|RNA2{StrandType:as}$	36.7%
